# Measurements from patent US7608623B2, “Hydroxyamidine and hydroxyguanidine compounds as urokinase inhibitors” (Wilex AG, priority 2003, dated 2009).
# Assays:
# [1] = Solubility of WX-671 hydrogen sulfate in water; format: physicochemical; settings: 25° C., calculated for the base
# From the text: The purity was ≧98% (area % after HPLC).
# [2] = Stability of WX-671 hydrogen sulfate (stirring in water/acetone; storage as solid); format: physicochemical
# Method: 5 g of hydrogen sulfate were stirred in 25 ml of water/acetone (80/20) for 7 days, filtered and dried at room temperature for 60 h. […] After stirring, no increase in the content of organic contaminations was found (determination by HPLC).
# After storage as a solid substance at 90° C. for 1 week, <1.5% organic contaminations were found (determination by HPLC).
# [3] = test system: BN-472 breast cancer; assay: Breast cancer model BN-472, tumor growth and metastasis in the rat (WX-683); format: in vivo; settings: BN-472 rat
# From the text: BN-472 breast cancer fragments of approximately 20 mm in diameter were taken from a female donor animal. The tumor was excised, separated from the adhering connective tissue, rinsed with saline, and resuspended in HAM-F12 cell culture medium (Invitrogen BV, Breda, Netherlands), supplemented with 10% fetal calf serum (Hi Clone, Greiner BV, Alphen a/d Rijn, Netherlands). The tumor cortex was sliced into cubes of about 2 mm side length and implanted orthotopically under the mammary fat pad of the 4th right nipple of 7 to 9-weeks old recipient female BN rats. Of the grafted tumors, over 95% became palpable within 3 days, and metastasis to the lungs were detected within 2 to 4 weeks.
# Shortly before starting the WX-683 treatment on day 3 after tumor transplantation, all rats were individually weighed and the size of the individual tumor measured as the product of the two largest perpendicular diameters. They were then assorted into groups consisting of 18 rats. The rats were pre-selected such that all treatment groups had similar average body weights and tumor size distributions at the start of the treatment. Control rats received 800 μl vehicle (0.01 N HCl) p.o. WX-683 was dissolved in vehicle at the appropriate concentrations and administered in a volume of 800 μl at dosages of 0.3 and 3 mg/kg by oral gavage once a day. The duration of WX-683 treatment ranged from 24 to 25 days, depending whether the tumor size exceeded the maximum tolerable burden. At the end of the treatment period, the rats were sacrificed, their tumors harvested, separated from the adhering connective tissue and the total tumor weight of every rat was determined. To assess the number of lung metastases, the lungs were fixed in Bouin's solution for at least 24 h. Subsequently the number of lung metastases were determined by counting the yellowish-white macroscopic foci on the lung surface (FIG. 7). This study was approved by the Independent Institutional Animal Care and Use Committee (DEC-Consult), Rotterdam, Netherlands, permit no: Erasmus MC OZP 136-03-01, issued on 01.03.2003.
# [4] = test system: BN472 breast cancer; assay: Breast cancer model BN472, tumor growth and metastasizing in rats (WX-671); settings: WX-UK1 i.p. 1 mg/kg daily, 30 days, BN472 rat mammary tumor model
# [5] = test system: CA20948 rat pancreatic tumor; assay: Pancreatic adenocarcinoma model CA20948; settings: WX-UK1 0.3 mg/kg intraperitoneal, 3 weeks, vehicle 30.7%
structure (smiles),measurement,setting,value
CCOC(=O)N1CCN(C(=O)[C@H](Cc2cccc(/C(N)=N\O)c2)NS(=O)(=O)c2c(C(C)C)cc(C(C)C)cc2C(C)C)CC1.O=S(=O)(O)O [WX-671 hydrogen sulfate],solubility in water,[1],1172.5 µg/mL
same,increase in content of organic contaminations (HPLC),[2]; after stirring in water/acetone (80/20) for 7 days,no increase
same,stability of the salt to dissociation (stoichiometry),[2]; stirred in water/acetone (80/20) for 7 days,stable to dissociation
same,organic contaminations (HPLC),[2]; storage as solid at 90° C. for 1 week,< 1.5%
"CCOC(=O)N1CCN(C(=O)[C@H](Cc2cccc(NC(=N)NO)c2)NS(=O)(=O)c2c(C(C)C)cc(C(C)C)cc2C(C)C)CC1 [WX-683, N-α-(2,4,6-triisopropylphenylsulfonyl)-3-hydroxyguanidino-(L)-phenylalanine-4-ethoxycarbonylpiperazide]",reduction of median number of lung metastases,[3]; oral 0.3 mg/kg/day,18%
same,reduction of median number of lung metastases,[3]; oral 3 mg/kg/day,54%
same,reduction of median primary tumor weight,"[3]; oral, highest dosage used (3 mg/kg/day)",38%
CCOC(=O)N1CCN(C(=O)[C@H](Cc2cccc(C(=N)N)c2)NS(=O)(=O)c2c(C(C)C)cc(C(C)C)cc2C(C)C)CC1.Cl [WX-UK1],reduction of average tumor weights at the end of the treatment compared to the control,[4],approx. 5%
same,percentage large mets (>2 mm liver lesions of total liver lesions),[5],13.4%
